# Data taken from ChEMBL document CHEMBL5584236, “Development of novel bisphenol derivatives with a membrane-targeting mechanism as potent gram-positive antibacterial agents” (Eur J Med Chem, 2024).
# What was measured:
# Staphylococcus aureus [1] = test: Antibacterial activity against methicillin-resistant Staphylococcus aureus N315 assessed as reduction in microbial growth incubated for 22 to 24 hrs by CLSI based broth microdilution method; assay type: functional; details: time 22-24 hrs
# Escherichia coli = test: Antibacterial activity against Escherichia coli ATCC25922 assessed as reduction in microbial growth incubated for 22 to 24 hrs by CLSI based broth microdilution method; assay type: functional; details: time 22-24 hrs
# Staphylococcus aureus [2] = test: Antibacterial activity against Staphylococcus aureus ATCC25923 assessed as reduction in microbial growth incubated for 22 to 24 hrs by CLSI based broth microdilution method; assay type: functional; details: time 22-24 hrs
# [3] = test system: Staphylococcus epidermidis; test: Antibacterial activity against Staphylococcus epidermidis CMCC26069 assessed as reduction in microbial growth incubated for 22 to 24 hrs by CLSI based broth microdilution method; assay type: functional; details: time 22-24 hrs
# [4] = test system: Staphylococcus epidermidis; test: Antibacterial activity against Staphylococcus epidermidis ATCC12228 assessed as reduction in microbial growth incubated for 22 to 24 hrs by CLSI based broth microdilution method; assay type: functional; details: time 22-24 hrs
# Staphylococcus aureus [5] = test: Bactericidal activity against methicillin-resistant Staphylococcus aureus NCTC10442 assessed as cell killing at 8 times of MIC measured with in 1 hr by time kill assay relative to control; assay type: functional
# [6] = Cytotoxicity against mouse NCTC clone 929 cells assessed as viable cells at 100 ug/ml incubated for 24 hrs by CCK-8 assay relative to control; assay type: toxicity, cell-based; details: NCTC clone 929 (L929) cells, at 100 µg/mL, read-out: Activity
# Staphylococcus aureus [7] = test: Induction of membrane permeabilization in Staphylococcus aureus ATCC29213 assessed as increase in fluorescence intensity measured upto 60 mins by SYTOX green assay; assay type: functional, organism-based
# Staphylococcus aureus [8] = test: Drug resistance, ratio of MIC for Staphylococcus aureus ATCC29213 after 20 passages to MIC for Staphylococcus aureus ATCC29213 after initial exposure; assay type: functional
# Staphylococcus aureus [9] = test: Antibacterial activity against Staphylococcus aureus ATCC29213 assessed as reduction in bacterial growth incubated for 22 to 24 hrs in presence of NaCl by CLSI based broth microdilution method; assay type: functional; details: time 22-24 hrs
# Staphylococcus aureus [10] = test: Antibacterial activity against Staphylococcus aureus ATCC29213 assessed as reduction in bacterial growth incubated for 22 to 24 hrs in presence of CaCl2 by CLSI based broth microdilution method; assay type: functional; details: time 22-24 hrs
# Staphylococcus aureus [11] = test: Antibacterial activity against Staphylococcus aureus ATCC29213 assessed as reduction in bacterial growth incubated for 22 to 24 hrs in presence of ZnSO4.7H2O by CLSI based broth microdilution method; assay type: functional; details: time 22-24 hrs
# Staphylococcus aureus [12] = test: Antibacterial activity against Staphylococcus aureus ATCC29213 assessed as reduction in bacterial growth incubated for 22 to 24 hrs in presence of FeCl2 by CLSI based broth microdilution method; assay type: functional; details: time 22-24 hrs
# Staphylococcus aureus [13] = test: Antibacterial activity against Staphylococcus aureus ATCC29213 assessed as reduction in bacterial growth incubated for 22 to 24 hrs in presence of FeCl3 by CLSI based broth microdilution method; assay type: functional; details: time 22-24 hrs
# Staphylococcus aureus [14] = test: Antibacterial activity against methicillin-resistant Staphylococcus aureus N315 assessed as reduction in bacterial growth incubated for 22 to 24 hrs in presence of MgCl2 by CLSI based broth microdilution method; assay type: functional; details: time 22-24 hrs
# Staphylococcus aureus [15] = test: Antibacterial activity against methicillin-resistant Staphylococcus aureus N315 assessed as reduction in bacterial growth incubated for 22 to 24 hrs in presence of FeCl2 by CLSI based broth microdilution method; assay type: functional; details: time 22-24 hrs
# Staphylococcus aureus [16] = test: Antibacterial activity against methicillin-resistant Staphylococcus aureus NCTC10442 assessed as reduction in bacterial growth incubated for 22 to 24 hrs in presence of CaCl2 by CLSI based broth microdilution method; assay type: functional; details: time 22-24 hrs
# Staphylococcus aureus [17] = test: Antibacterial activity against methicillin-resistant Staphylococcus aureus NCTC10442 assessed as reduction in bacterial growth incubated for 22 to 24 hrs in presence of FeCl3 by CLSI based broth microdilution method; assay type: functional; details: time 22-24 hrs
# Staphylococcus aureus [18] = test: Synergistic […] activity against Staphylococcus aureus ATCC29213 assessed as fractional inhibitory concentration index incubated for 22 to 24 hrs in presence of linezolid by CLSI based broth microdilution method; assay type: functional; details: time 22-24 hrs
# Staphylococcus aureus [19] = test: Synergistic […] activity against Staphylococcus aureus ATCC29213 assessed as fractional inhibitory concentration index incubated for 22 to 24 hrs in presence of mupirocin by CLSI based broth microdilution method; assay type: functional; details: time 22-24 hrs
# Staphylococcus aureus [20] = test: Synergistic […] activity against Staphylococcus aureus ATCC29213 assessed as fractional inhibitory concentration index incubated for 22 to 24 hrs in presence of teicoplanin by CLSI based broth microdilution method; assay type: functional; details: time 22-24 hrs
# Staphylococcus aureus [21] = test: Synergistic […] activity against Staphylococcus aureus ATCC29213 assessed as fractional inhibitory concentration index incubated for 22 to 24 hrs in presence of tobramycin by CLSI based broth microdilution method; assay type: functional; details: time 22-24 hrs
# Staphylococcus aureus [22] = test: Synergistic […] activity against methicillin-resistant Staphylococcus aureus NCTC10442 assessed as fractional inhibitory concentration index incubated for 22 to 24 hrs in presence of fusidic acid by CLSI based broth microdilution method; assay type: functional; details: time 22-24 hrs
# Klebsiella pneumoniae [23] = test: Synergistic […] activity against Klebsiella pneumoniae ATCC10031 assessed as fractional inhibitory concentration index incubated for 22 to 24 hrs in presence of levofloxacin by CLSI based broth microdilution method; assay type: functional; details: time 22-24 hrs
# Klebsiella pneumoniae [24] = test: Synergistic […] activity against Klebsiella pneumoniae ATCC10031 assessed as fractional inhibitory concentration index incubated for 22 to 24 hrs in presence of tobramycin by CLSI based broth microdilution method; assay type: functional; details: time 22-24 hrs
# Klebsiella pneumoniae [25] = test: Synergistic […] activity against Klebsiella pneumoniae ATCC10031 assessed as fractional inhibitory concentration index incubated for 22 to 24 hrs in presence of meropenem by CLSI based broth microdilution method; assay type: functional; details: time 22-24 hrs
# Acinetobacter baumannii [26] = test: Synergistic […] activity against Acinetobacter baumannii ATCC17978 assessed as fractional inhibitory concentration index incubated for 22 to 24 hrs in presence of levofloxacin by CLSI based broth microdilution method; assay type: functional; details: time 22-24 hrs
# Acinetobacter baumannii [27] = test: Synergistic […] activity against Acinetobacter baumannii ATCC17978 assessed as fractional inhibitory concentration index incubated for 22 to 24 hrs in presence of meropenem by CLSI based broth microdilution method; assay type: functional; details: time 22-24 hrs
# [28] = Cytotoxicity against mouse NCTC clone 929 cells assessed as viable cells at 3.125 ug/ml incubated for 24 hrs by CCK-8 assay relative to control; assay type: toxicity, cell-based; details: NCTC clone 929 (L929) cells, at 3.125 µg/mL, read-out: Activity
# [29] = Cytotoxicity against mouse NCTC clone 929 cells assessed as viable cells at 12.5 ug/ml incubated for 24 hrs by CCK-8 assay relative to control; assay type: toxicity, cell-based; details: NCTC clone 929 (L929) cells, at 12.5 µg/mL, read-out: Activity
# [30] = Cytotoxicity against mouse NCTC clone 929 cells assessed as viable cells at 25 ug/ml incubated for 24 hrs by CCK-8 assay relative to control; assay type: toxicity, cell-based; details: NCTC clone 929 (L929) cells, at 25 µg/mL, read-out: Activity
# [31] = Cytotoxicity against HEK293 cells assessed as viable cells at 25 ug/ml incubated for 24 hrs by CCK-8 assay relative to control; assay type: toxicity, cell-based; details: human, at 25 µg/mL, read-out: Activity
# [32] = Cytotoxicity against HEK293 cells assessed as viable cells at 50 ug/ml incubated for 24 hrs by CCK-8 assay relative to control; assay type: toxicity, cell-based; details: human, at 50 µg/mL, read-out: Activity
structure (smiles),measurement,setting,value
COC(=O)[C@H](CCCNC(=N)N)NC(=O)[C@H](CCCNC(=N)N)NC(=O)COc1ccc(S(=O)(=O)c2ccc(OC/C=C(/C)CCC=C(C)C)cc2)cc1,MIC,Staphylococcus aureus [1],0.78 µg/mL
same,MIC,Escherichia coli,6.25 µg/mL
same,MIC,Staphylococcus aureus [2],3.12 µg/mL
same,MIC,[3],1.56 µg/mL
same,MIC,[4],1.56 µg/mL
same,Activity,Staphylococcus aureus [5],99.99%
same,"viability at 24 h, 100 ug/ml",[6],74%
same,Activity,Staphylococcus aureus [7],Dose-Dependent Effect
same,Ratio,Staphylococcus aureus [8],4
same,MIC,Staphylococcus aureus [9],1.56 µg/mL
same,MIC,Staphylococcus aureus [10],3.12 µg/mL
same,MIC,Staphylococcus aureus [11],1.56 µg/mL
same,MIC,Staphylococcus aureus [12],1.56 µg/mL
same,MIC,Staphylococcus aureus [13],1.56 µg/mL
same,MIC,Staphylococcus aureus [14],1.56 µg/mL
same,MIC,Staphylococcus aureus [15],1.56 µg/mL
same,MIC,Staphylococcus aureus [16],3.12 µg/mL
same,MIC,Staphylococcus aureus [17],1.56 µg/mL
same,fractional inhibitory concentration index (FICI),Staphylococcus aureus [18],0.28
same,fractional inhibitory concentration index (FICI),Staphylococcus aureus [19],0.625
same,fractional inhibitory concentration index (FICI),Staphylococcus aureus [20],0.31
same,fractional inhibitory concentration index (FICI),Staphylococcus aureus [21],0.38
same,fractional inhibitory concentration index (FICI),Staphylococcus aureus [22],0.5
same,fractional inhibitory concentration index (FICI),Klebsiella pneumoniae [23],0.56
same,fractional inhibitory concentration index (FICI),Klebsiella pneumoniae [24],0.375
same,fractional inhibitory concentration index (FICI),Klebsiella pneumoniae [25],0.56
same,fractional inhibitory concentration index (FICI),Acinetobacter baumannii [26],0.25
same,fractional inhibitory concentration index (FICI),Acinetobacter baumannii [27],0.25
same,"viability at 24 h, 3.125 ug/ml",[28],92.6%
same,"viability at 24 h, 12.5 ug/ml",[29],88.9%
same,"viability at 24 h, 25 ug/ml",[30],87.6%
same,"viability at 24 h, 25 ug/ml",[31],93.8%
same,"viability at 24 h, 50 ug/ml",[32],91.5%
